From patent US20240260575A1, “AGRICULTURAL AND HORTICULTURAL FUNGICIDAL COMPOSITION” (Nippon Soda Co., Ltd., priority 2021, published 2024)

Legend:
[1] = test system: gray mold pathogen (Botrytis cinerea); assay: Gray mold antimicrobial test (growth inhibition rate); type: cell-based; design: growth inhibition rate, component (II) alone: concentration or dose not given beside the values
Protocol: (Test Example) Gray Mold Antimicrobial Test (Growth Inhibition Rate)
Conidiospores of a gray mold pathogen (Botrytis cinerea) were added to and dispersed in a yeast extract sucrose medium, and a component (I) and a component (II) dissolved in dimethyl sulfoxide at predetermined concentrations were further added and mixed thereto, and the resulting solution was dispensed onto a 96-well microplate and cultivated in the dark at 20° C. for 3 to 5 days. After the cultivation, the turbidity at a wavelength of 405 nm was measured by a microplate reader and compared with that in the untreated case to determine the growth inhibition rate (%) for the gray mold pathogen. The test was duplicately carried out. The results are shown in Tables 3 to 7 together with expected values calculated as follows.
Expected values were calculated by using Colby's equation: E=M+N−MN/100. Here, E denotes an expected value (%) of a growth inhibition rate, M denotes a growth inhibition rate (%) in using a component (I) alone, and N denotes a growth inhibition rate (%) in using a component (II) alone.
If the actually measured growth inhibition rate (%) of a composition of a component (I) and a component (II) is higher than the expected value, E, the composition of a component (I) and a component (II) is said to have exerted synergistic effect.

[2] = test system: cucumber powdery mildew pathogen (Sphaerotheca fuliginea); assay: Cucumber powdery mildew control test; type: in vivo; design: scale not given here; details: for control value: sprayed onto cucumber seedlings
Excerpt: (Test Example) Cucumber Powdery Mildew Control Test 1) Preparation of Drug Solution for Test […] The other components (II) were each formulated into an aqueous solution or suspension having a predetermined concentration. 2) Test A mixed solution of a component (I) and a component (II) at a predetermined concentration was sprayed onto cucumber seedlings (variety: “Shimo-shirazu, creeping type”, cotyledon stage). After natural drying at room temperature, conidiospores of a cucumber powdery mildew pathogen (Sphaerotheca fuliginea) were inoculated by blushing off, and the seedlings were kept in a thermostatic room at 20° C. using a 12 hour light/dark cycle for 7 to 10 days. The states of lesion development on leaves were examined by comparing with that for the untreated case, and the control values were determined. The test was duplicately carried out. The results are shown in Tables 8 to 12 together with expected values calculated as follows. Expected values were calculated by using Colby's equation: […] Here, E denotes an expected value of a control value, M denotes a control value in using a component (I) alone, and N denotes a control value in using a component (II) alone. If the actually measured control value of a composition of a component (I) and a component (II) is higher than the expected value, E, the composition of a component (I) and a component (II) is said to have exerted synergistic effect.

[3] = Table 3, ppm: Ipflufenoquin 10, Cyflufenamid 10, Thiophamate-methyl 0.4, Iminoctadine acetate 0.08, Iminoctadine albesilate 0.08, Triflumizole 0.0032, Picarbutrazox 0.08, Prothioconazole 0.0032, Mefentrifluconazole 0.00064, Cymoxanil 10, Fludioxonil 0.016, Metyltetraprole 0.4, Florylpicoxamid 0.08, Fluxapyroxad 0.08, Fluopyram 0.4, Potassium phosphite 10, Fipronil 2, Chlorantraniliprole 0.016, Aba
[4] = Table 4, ppm: Ipflufenoquin 10, Cyflufenamid 2, Thiophamate-methyl 0.4, Iminoctadine acetate 0.08, Iminoctadine albesilate 0.4, Picarbutrazox 10, Prothioconazole 0.0032, Mefentrifluconazole 0.0006, Cymoxanil 10, Fludioxonil 0.016, Metyltetraprole 10, Fluxapyroxad 0.016, Fluopyram 0.4, Potassium phosphite 10, Fipronil 2, Chlorantraniliprole 0.016, Abamectin 0.016, Sulfoxaflor 10, Tebufenozide 0.016
[5] = Table 5, ppm: Ipflufenoquin 10, Cyflufenamid 10, Thiophamate-methyl 0.4, Iminoctadine albesilate 0.4, Picarbutrazox 0.0032, Mefentrifluconazole 0.0006, Cymoxanil 10, Captan 0.0032, Fludioxonil 0.016, Metyltetraprole 10, Florylpicoxamid 0.0001, Fluxapyroxad 0.016, Fluopyram 0.0032, Potassium phosphite 0.08, Fipronil 2, Chlorantraniliprole 0.016, Abamectin 0.4, Sulfoxaflor 0.4, Tebufenozide 10
[6] = Table 6, ppm: Ipflufenoquin 10, Cyflufenamid 0.08, Thiophamate-methyl 2, Triflumizole 0.08, Picarbutrazox 0.0016, Prothioconazole 0.0006, Mefentrifluconazole 0.08, Cymoxanil 0.08, Captan 0.08, Fludioxonil 0.016, Metyltetraprole 10, Florylpicoxamid 0.0006, Fluxapyroxad 0.0032, Fluopyram 0.016, Potassium phosphite 0.016, Fipronil 10, Chlorantraniliprole 0.08, Abamectin 2, Sulfoxaflor 0.08, Tebufenoz
[7] = Table 7, ppm: Ipflufenoquin 0.08, Cyflufenamid 0.08, Thiophamate-methyl 2, Iminoctadine acetate 0.0001, Iminoctadine albesilate 0.4, Triflumizole 0.4, Prothioconazole 0.0032, Mefentrifluconazole 0.08, Cymoxanil 0.08, Captan 0.08, Fludioxonil 0.08, Metyltetraprole 0.0032, Florylpicoxamid 0.0006, Fluxapyroxad 0.016, Fluopyram 0.0032, Potassium phosphite 0.016, Fipronil 2, Chlorantraniliprole 0.016
[8] = Table 8, ppm or dilution rate: Thiophanate-methyl 1.6, Triflumizole 25, Cyflufenamid 1.6, Iminoctadine acetate 0.25, Iminoctadine albesilate 1, Picarbutrazox 2000, Ipflufenoquin 1, Bacillus subtilis ×250, Pseudomonas rhodesiae ×2000, Sodium hydrogen carbonate 250, Potassium bicarbonate 250, Orange oil 4000, Linalool 4000, Thymol 100, Neem oil 2000, Prothioconazole 1.6, Mancozeb 63, Mineral oil 500
[9] = Table 9, ppm or dilution rate: Thiophanate-methyl 1.6, Triflumizole 25, Cyflufenamid 1.6, Iminoctadine acetate 0.25, Iminoctadine albesilate 1, Picarbutrazox 2000, Ipflufenoquin 1, Bacillus subtilis ×250, Pseudomonas rhodesiae ×2000, Sodium hydrogen carbonate 250, Potassium bicarbonate 250, Orange oil 1000, Linalool 4000, Thymol 100, Neem oil 2000, Prothioconazole 1.6, Mancozeb 63, Mineral oil 500
[10] = Table 10, ppm or dilution rate: Thiophanate-methyl 1.6, Triflumizole 25, Cyflufenamid 1.6, Iminoctadine acetate 0.25, Iminoctadine albesilate 1, Picarbutrazox 2000, Ipflufenoquin 1, Bacillus subtilis ×1000, Pseudomonas rhodesiae ×2000, Sodium hydrogen carbonate 250, Potassium bicarbonate 250, Orange oil 1000, Linalool 4000, Thymol 100, Neem oil 2000, Prothioconazole 1.6, Mancozeb 63, Mineral oil 5
[11] = Table 11, ppm or dilution rate: Thiophanate-methyl 1.6, Triflumizole 25, Cyflufenamid 1.6, Iminoctadine acetate 1, Iminoctadine albesilate 1, Picarbutrazox 2000, Ipflufenoquin 1, Bacillus subtilis ×1000, Pseudomonas rhodesiae ×2000, Sodium hydrogen carbonate 250, Potassium bicarbonate 250, Orange oil 1000, Linalool 4000, Thymol 100, Neem oil 2000, Prothioconazole 1.6, Mancozeb 63, Mineral oil 500
[12] = Table 12, ppm or dilution rate: Thiophanate-methyl 1.6, Triflumizole 25, Cyflufenamid 1.6, Iminoctadine acetate 0.25, Iminoctadine albesilate 1, Picarbutrazox 2000, Ipflufenoquin 1, Bacillus subtilis ×1000, Pseudomonas rhodesiae ×2000, Sodium hydrogen carbonate 1000, Potassium bicarbonate 250, Orange oil 1000, Linalool 4000, Thymol 400, Neem oil 2000, Prothioconazole 1.6, Mancozeb 63, Mineral oil

Row | Compound | growth inhibition rate, component (II) alone [1, 3] [%] | growth inhibition rate, component (II) alone [1, 4] [%] | growth inhibition rate, component (II) alone [1, 5] [%] | growth inhibition rate, component (II) alone [1, 6] [%] | growth inhibition rate, component (II) alone [1, 7] [%] | control value, component (II) alone [2, 8] | control value, component (II) alone [2, 9] | control value, component (II) alone [2, 10] | control value, component (II) alone [2, 11] | control value, component (II) alone [2, 12] | other results
1 | Cc1nc2c(F)c(F)ccc2cc1Oc1cccc(F)c1C(C)(C)O [Ipflufenoquin] | 4 | 4 | 4 | 4 | 0 | 27 | 27 | 27 | 27 | 27 | 
2 | COc1ccc(F)cc1C(O)Cn1cc(/C(C)=N/OC(C)C)c(=O)n(C[C@@H](NC(=O)C(C)(C)C)C(C)C)c1=O (stereo partly drawn) [Compound 2] |  |  |  |  |  |  |  |  |  |  | growth inhibition rate ([1]; Table 4, Examination 1, Compound 2 (0.25 or 0.063 ppm) alone or mixed with component (II)): 69%; growth inhibition rate ([1]; Table 4, Examination 2, Compound 2 (0.25 or 0.063 ppm) alone or mixed with component (II)): 53%; growth inhibition rate ([1]; Table 4, Examination 3, Compound 2 (0.25 or 0.063 ppm) alone or mixed with component (II)): 46%; growth inhibition rate ([1]; Table 4, Examination 4, Compound 2 (0.25 or 0.063 ppm) alone or mixed with component (II)): 41%; growth inhibition rate ([1]; Table 4, Examination 5, Compound 2 (0.25 or 0.063 ppm) alone or mixed with component (II)): 35%; control value ([2]; Table 9, Examination 1, Compound 2 0.4 ppm alone or mixed with component (II)): 67; control value ([2]; Table 9, Examination 2, Compound 2 0.4 ppm alone or mixed with component (II)): 71; control value ([2]; Table 9, Examination 3, Compound 2 0.4 ppm alone or mixed with component (II)): 67; control value ([2]; Table 9, Examination 4, Compound 2 0.4 ppm alone or mixed with component (II)): 67; control value ([2]; Table 9, Examination 5, Compound 2 0.4 ppm alone or mixed with component (II)): 59; control value ([2]; Table 9, Examination 6, Compound 2 0.4 ppm alone or mixed with component (II)): 67
3 | CC(=O)O.CC(=O)O.CC(=O)O.NC(N)=NCCCCCCCCNCCCCCCCCN=C(N)N [Iminoctadine acetate] | 25 | 56 |  |  | 0 | 0 | 50 | 0 | 50 | 17 | 
4 | COc1ccc(F)cc1C(Cn1cc(/C(C)=N/OC(C)C)c(=O)n(C[C@H](C)NC(=O)C(C)C)c1=O)OCCC#N (stereo partly drawn) [Compound 5] |  |  |  |  |  |  |  |  |  |  | growth inhibition rate ([1]; Table 7, Examination 1, Compound 5 (0.25 or 0.063 ppm, head span unclear) alone or mixed with component (II)): 61%; growth inhibition rate ([1]; Table 7, Examination 2, Compound 5 (0.25 or 0.063 ppm, head span unclear) alone or mixed with component (II)): 43%; growth inhibition rate ([1]; Table 7, Examination 3, Compound 5 (0.25 or 0.063 ppm, head span unclear) alone or mixed with component (II)): 13%; growth inhibition rate ([1]; Table 7, Examination 4, Compound 5 (0.25 or 0.063 ppm, head span unclear) alone or mixed with component (II)): 3%; growth inhibition rate ([1]; Table 7, Examination 5, Compound 5 (0.25 or 0.063 ppm, head span unclear) alone or mixed with component (II)): 3%; growth inhibition rate ([1]; Table 7, Examination 6, Compound 5 (0.25 or 0.063 ppm, head span unclear) alone or mixed with component (II)): 2%; control value ([2]; Table 12, Examination 1, Compound 5 0.4 ppm alone or mixed with component (II)): 83; control value ([2]; Table 12, Examination 2, Compound 5 0.4 ppm alone or mixed with component (II)): 60; control value ([2]; Table 12, Examination 3, Compound 5 0.4 ppm alone or mixed with component (II)): 56; control value ([2]; Table 12, Examination 4, Compound 5 0.4 ppm alone or mixed with component (II)): 50; control value ([2]; Table 12, Examination 5, Compound 5 0.4 ppm alone or mixed with component (II)): 67; control value ([2]; Table 12, Examination 6, Compound 5 0.4 ppm alone or mixed with component (II)): 50; control value ([2]; Table 12, Examination 7, Compound 5 0.4 ppm alone or mixed with component (II)): 67
5 | CCCCCCCCCCCCc1ccc(S(=O)(=O)O)cc1.CCCCCCCCCCCCc1ccc(S(=O)(=O)O)cc1.CCCCCCCCCCCCc1ccc(S(=O)(=O)O)cc1.NC(N)=NCCCCCCCCNCCCCCCCCN=C(N)N [Iminoctadine albesilate] | 6 | 81 | 81 |  | 81 | 50 | 67 | 50 | 67 | 17 | 
6 | Cn1nnnc1/C(=N\OCc1cccc(NC(=O)OC(C)(C)C)n1)c1ccccc1 [Picarbutrazox] | 0 | 12 | 1 | 12 |  | 50 | 50 | 50 | 50 | 50 | 
